Results as given in patent US9260485B2 (priority 2009, dated 2016).
Read-outs that look alike come from different tables or passages of the source. Square brackets hold non-standard residues; d marks the D form. Peptide text beside a SMILES is read from it. ξ: configuration not given here. ξLac(3-iPr) = CC(C)CC(O)C(=O)O; NMeL = CN[C@@H](CC(C)C)C(=O)O

Assays:
[1] = system: MDR cell lines (MES-SA/DX5 and HCT15/CL02); experiment: Multidrug resistance-reversing activity, summary in words; format: cell-based, Human
Protocol: The cyclic pentadepsipeptides of Chemical Formulas 1 and 2 were analyzed for MDR-reversing activity by comparing inhibitory activities against multidrug-resistant cancer cell lines (MES-SA/DX5 and HCT15/CL02) with those against non-multidrug-resistant cancer cell lines (MES-SA and HCT15). In this regard, the effects of the cyclic pentadepsipeptides of Chemical Formulas 1 and 2 on paclitaxel's cytotoxicity against MDR tumor cells were measured (Table 6). […].
Therefore, the N-methyl group in the cyclic pentadepsipeptide may be a factor crucial for the expression of the MDR reversal activity. […]

[2] = system: Bacillus cereus ATCC 13061; experiment: Anti-bacterial activity, paper disc clear zone; format: cell-based; conditions: 0.1, 0.5, 1 and 2 mM on paper disc; 37° C., 24 hr
Protocol: (§1) Assays for antibacterial activity were performed with 3 Gram-positive (Listeria monocytogenes ATCC 14028, Staphylococcus aureus ATCC 35556 and Bacillus cereus ATCC 13061) and 3 Gram-negative bacteria (Escherichia coli ATCC 8739, Pseudomonas aeruginosa ATCC 9026 and Salmonella typhimurium ATCC 14028). Each of the compounds of Chemical Formulas 1 and 2 was dissolved in different concentrations (0.1, 0.5, 1, and 2 mM) in dimethyl sulfoxide (DMSO). The solutions were applied to a sterile paper disc (5 mm diameter), followed by evaporating the DMSO solvent. Bacteria was inoculated at a density of 1×10^7 CFU/ml on Tryptic soy agar (TSA) and then, the paper disc was placed on the bacteria-inoculated agars. After incubation at 37° C. for 24 hr, the clear zone around each disc was observed and its diameter was measured.

[3] = system: Staphylococcus aureus ATCC 35556; experiment: Anti-bacterial activity, paper disc clear zone; format: cell-based; conditions: 0.1, 0.5, 1 and 2 mM on paper disc; 37° C., 24 hr
Protocol: as §1

[4] = system: Pseudomonas aeruginosa ATCC 9026; experiment: Anti-bacterial activity, paper disc clear zone; format: cell-based; conditions: 0.1, 0.5, 1 and 2 mM on paper disc; 37° C., 24 hr
Protocol: as §1

[5] = system: Salmonella typhimurium ATCC 14028; experiment: Anti-bacterial activity, paper disc clear zone; format: cell-based; conditions: 0.1, 0.5, 1 and 2 mM on paper disc; 37° C., 24 hr
Protocol: as §1

[6] = system: Escherichia coli ATCC 8739; experiment: Anti-bacterial activity, paper disc clear zone; format: cell-based; conditions: 0.1, 0.5, 1 and 2 mM on paper disc; 37° C., 24 hr
Protocol: as §1

[7] = system: Listeria monocytogenes ATCC 14028; experiment: Anti-bacterial activity, paper disc clear zone; format: cell-based; conditions: 0.1, 0.5, 1 and 2 mM on paper disc; 37° C., 24 hr
Protocol: as §1

[8] = system: Mucor rouxii; experiment: Anti-fungal activity, paper disc on mycelia on PDA; format: cell-based; conditions: for Inhibitory activity on mycelial growth: 1 mM; for Inhibitory activity on mycelial growth / Clear zone / Hyphal growth near the paper disc: 25° C., 48 hr; for Clear zone / Hyphal growth near the paper disc: 10 mM
Protocol: (§2) Inhibitory activity was performed against four fungus strains (Mucor rouxii, Penicillium citrinum, Fusarium oxysporum, and Aspergillus oryzae).
(§3) Drops of 1 and 10 mM solutions of compounds of Chemical Formulas 1 and 2 in methanol were loaded onto sterile paper discs (8 mm diameter) and the methanol solvent was evaporated under a hood. The paper discs were placed on fungus mycelia grown on potato dextrose agar. After incubation at 25° C. for 48 hr, clear zones around the discs were observed and their diameters were measured. A filter treated with pure methanol was used as a negative control.

[9] = system: Penicillium citrinum; experiment: Anti-fungal activity, paper disc on mycelia on PDA; format: cell-based; conditions: 1 mM; 25° C., 48 hr
Protocol: as §2, §3

[10] = system: Aspergillus oryzae; experiment: Anti-fungal activity, paper disc on mycelia on PDA; format: cell-based; conditions: 1 mM; 25° C., 48 hr
Protocol: as §2, §3

[11] = system: Fusarium oxysporum; experiment: Anti-fungal activity, paper disc on mycelia on PDA; format: cell-based; conditions: for Inhibitory activity on mycelial growth: 1 mM; for Inhibitory activity on mycelial growth / Clear zone / inhibitory effect on mycelium: 25° C., 48 hr; for Clear zone / inhibitory effect on mycelium: 10 mM
Protocol: as §2, §3

[12] = system: SK-OV-3 ovarian cancer cell line; experiment: In vitro cytotoxicity, SRB method; format: cell-based, Human
Protocol: (§4) Known cyclic hexadepsipeptides (beauvericin, enniatin H, I, and MK1688) and the compounds of Chemical Formulas 1 and 2 were evaluated for in vitro cytotoxicity against various non-multidrug-resistant human cancer cell lines and multidrug-resistant cancer cell lines using the SRB method.
(§5) Human non-small-cell lung cancer cell line (A549) ovarian cancer cell line (SK-OV-3), skin cancer cell line (SK-MEL-2), and uterine sarcoma cell line MES-SA and its multi-drug resistant subline (MES-SA/DX5) were purchased from the American Type Culture Collection (USA). Colorectal carcinoma cancer cell line (HCT-15) was provided by the National Cancer Institute (NCI). HCT15/CL02 cell lines were established from HCT15 cells by continuous and stepwise exposure of the cells to doxorubicin in the Korea Research Institute of Chemical Technology (Korea).

[13] = system: MES-SA uterine sarcoma cell line; experiment: In vitro cytotoxicity, SRB method; format: cell-based, Human; conditions: read-out: EC50 (concentration inhibiting cell growth in vitro by 50%)
Protocol: as §4, §5

[14] = system: MES-SA/DX5 multi-drug resistant subline; experiment: In vitro cytotoxicity, SRB method; format: cell-based, Human
Protocol: as §4, §5

[15] = system: HCT15/CL02 cell line (doxorubicin-selected from HCT15); experiment: In vitro cytotoxicity, SRB method; format: cell-based, Human
Protocol: as §4, §5

[16] = system: SK-MEL-2 skin cancer cell line; experiment: In vitro cytotoxicity, SRB method; format: cell-based, Human
Protocol: as §4, §5

[17] = system: A549 non-small-cell lung cancer cell line; experiment: In vitro cytotoxicity, SRB method; format: cell-based, Human
Protocol: as §4, §5

[18] = system: HCT15 colorectal carcinoma cancer cell line; experiment: In vitro cytotoxicity, SRB method; format: cell-based, Human
Protocol: as §4, §5

[19] = Homo sapiens, SK-OV-3, read-out: EC50 (concentration inhibiting cell growth in vitro by 50%)
[20] = Homo sapiens, MES-SA/Dx5, read-out: EC50 (concentration inhibiting cell growth in vitro by 50%)
[21] = Homo sapiens, HCT-15, read-out: EC50 (concentration inhibiting cell growth in vitro by 50%)
[22] = Homo sapiens, SK-MEL-2, read-out: EC50 (concentration inhibiting cell growth in vitro by 50%)
[23] = Homo sapiens, A549, read-out: EC50 (concentration inhibiting cell growth in vitro by 50%)

| SMILES | Effect on the cytotoxicity of paclitaxel against MDR cell lines [1] | Inhibitory activity (clear zone around disc) [2] | Inhibitory activity (clear zone around disc) [3] | Inhibitory activity (clear zone around disc) [4] | Inhibitory activity (clear zone around disc) [5] | Inhibitory activity (clear zone around disc) [6] | Inhibitory activity (clear zone around disc) [7] | Antifungal test, overall result [8] | Inhibitory activity on mycelial growth [8] | Clear zone [8] | Hyphal growth near the paper disc [8] | Inhibitory activity on mycelial growth [9] | Inhibitory activity on mycelial growth [10] | Antifungal test, overall result [11] | Inhibitory activity on mycelial growth [11] | EC50 [12, 19] [µM] | EC50 ([13]; Homo sapiens) [µM] | EC50 [14, 20] [µM] | EC50 [16, 22] [µM] | EC50 [17, 23] [µM] | other results |
| --- | --- | --- | --- | --- | --- | --- | --- | --- | --- | --- | --- | --- | --- | --- | --- | --- | --- | --- | --- | --- | --- |
| CC(C)CC1OC(=O)[C@H](CC(C)C)NC(=O)[C@H](Cc2ccccc2)NC(=O)[C@H](C(C)C)NC(=O)[C@H](CC(C)C)NC1=O (stereo partly drawn) [Com. 1, neo-sansalvamide] (cyclo(FL[ξLac(3-iPr)]LV)) | increased the cytotoxicity of paclitaxel against MDR cell lines, but only slightly | Neither the compound of Chemical Formula 1 nor Chemical Formula 2 showed inhibitory activity | Neither the compound of Chemical Formula 1 nor Chemical Formula 2 showed inhibitory activity | Neither the compound of Chemical Formula 1 nor Chemical Formula 2 showed inhibitory activity | Neither the compound of Chemical Formula 1 nor Chemical Formula 2 showed inhibitory activity | Neither the compound of Chemical Formula 1 nor Chemical Formula 2 showed inhibitory activity | Neither the compound of Chemical Formula 1 nor Chemical Formula 2 showed inhibitory activity | inhibitory against Mucor rouxii, and Fusarium oxysporum, weakly | No inhibitory activities were detected | no clear zones were observed | hyphal growth of Mucor rouxii was reduced | No inhibitory activities were detected | No inhibitory activities were detected | inhibitory against Mucor rouxii, and Fusarium oxysporum, weakly | No inhibitory activities were detected | 10.4 ± 0.64 | 11.8 ± 0.13 | 19.4 ± 1.1 | 14 ± 1.32 | 11.7 ± 0.55 | Clear zone / inhibitory effect on mycelium [11]: did not produce a clear zone; EC50 [15, 21]: 22.1 ± 2.45 µM; EC50 [18, 21]: 9.95 ± 1 µM |
| CC(C)CC1OC(=O)[C@H](Cc2ccccc2)NC(=O)[C@H](CC(C)C)NC(=O)[C@H](C(C)C)NC(=O)[C@H](CC(C)C)N(C)C1=O (stereo partly drawn) [Com. 2, neo-Nmethylsansalvamide] (cyclo(F[ξLac(3-iPr)][NMeL]VL)) | remarkably enhanced the cytotoxicity of paclitaxel | Neither the compound of Chemical Formula 1 nor Chemical Formula 2 showed inhibitory activity | Neither the compound of Chemical Formula 1 nor Chemical Formula 2 showed inhibitory activity | Neither the compound of Chemical Formula 1 nor Chemical Formula 2 showed inhibitory activity | Neither the compound of Chemical Formula 1 nor Chemical Formula 2 showed inhibitory activity | Neither the compound of Chemical Formula 1 nor Chemical Formula 2 showed inhibitory activity | Neither the compound of Chemical Formula 1 nor Chemical Formula 2 showed inhibitory activity | inhibitory against Mucor rouxii, and Fusarium oxysporum, weakly | No inhibitory activities were detected | no clear zones were observed | hyphal growth of Mucor rouxii was reduced | No inhibitory activities were detected | No inhibitory activities were detected | inhibitory against Mucor rouxii, and Fusarium oxysporum, weakly | No inhibitory activities were detected | 11.2 ± 1.23 | 14 ± 0.74 | 11.4 ± 0.3 | 10 ± 0.53 | 10.7 ± 0.15 | Clear zone / inhibitory effect on mycelium [11]: exhibited an inhibitory effect at 10 mM, weakly; EC50 [15, 21]: 13.5 ± 1.19 µM; EC50 [18, 21]: 12.5 ± 0.71 µM |
| COc1cccc2c1C(=O)c1c(O)c3c(c(O)c1C2=O)C[C@@](O)(C(=O)CO)C[C@@H]3O[C@H]1C[C@H](N)[C@H](O)[C@H](C)O1 [Doxorubicin, doxorubicin] | – | – | – | – | – | – | – | – | – | – | – | – | – | – | – | 0.06 ± 0.01 | 0.01 ± 0.0001 | 1.03 ± 0.31 | 0.04 ± 0.01 | 0.03 ± 0.01 | EC50 ([15]; Homo sapiens, HCT-15, read-out: EC50 (concentration inhibiting cell growth in vitro by 50%), HCT15/CL02): 4.48 ± 2.15 µM; EC50 ([18]; Homo sapiens, HCT-15, read-out: EC50 (concentration inhibiting cell growth in vitro by 50%), HCT15): 0.01 ± 0.001 µM |
| CC[C@H](C)[C@H]1OC(=O)[C@H](C(C)C)N(C)C(=O)[C@@H](C(C)C)OC(=O)[C@H](C(C)C)N(C)C(=O)[C@@H](C(C)C)OC(=O)[C@H](C(C)C)N(C)C1=O [EN H, enniatin H] | – | – | – | – | – | – | – | – | – | – | – | – | – | – | – | – | – | – | – | – | EC50 ([12]; read-out: EC50 (concentration inhibiting cell growth in vitro by 50%), SK-OV-3): 1.71 ± 0.03 µM; EC50 [13]: 12.9 ± 0.23 µM; EC50 ([14]; read-out: EC50 (concentration inhibiting cell growth in vitro by 50%), MES-SA/DX5): 14.9 ± 0.59 µM; EC50 ([15]; read-out: EC50 (concentration inhibiting cell growth in vitro by 50%), HCT15/CL02): 17.7 ± 0.49 µM; EC50 ([16]; read-out: EC50 (concentration inhibiting cell growth in vitro by 50%), SK-MEL-2): 1.77 ± 0.03 µM; EC50 ([17]; read-out: EC50 (concentration inhibiting cell growth in vitro by 50%), A549): 1.84 ± 0.11 µM; EC50 ([18]; read-out: EC50 (concentration inhibiting cell growth in vitro by 50%), HCT15): 16.7 ± 0.96 µM |
